Key:
COX-2 [1] = biological target: T1, COX-2 (Homo sapiens, UniProt P35354); details: comparison values for other COX-2 substrates; cited from earlier work
T1 sequence (P35354 18-604): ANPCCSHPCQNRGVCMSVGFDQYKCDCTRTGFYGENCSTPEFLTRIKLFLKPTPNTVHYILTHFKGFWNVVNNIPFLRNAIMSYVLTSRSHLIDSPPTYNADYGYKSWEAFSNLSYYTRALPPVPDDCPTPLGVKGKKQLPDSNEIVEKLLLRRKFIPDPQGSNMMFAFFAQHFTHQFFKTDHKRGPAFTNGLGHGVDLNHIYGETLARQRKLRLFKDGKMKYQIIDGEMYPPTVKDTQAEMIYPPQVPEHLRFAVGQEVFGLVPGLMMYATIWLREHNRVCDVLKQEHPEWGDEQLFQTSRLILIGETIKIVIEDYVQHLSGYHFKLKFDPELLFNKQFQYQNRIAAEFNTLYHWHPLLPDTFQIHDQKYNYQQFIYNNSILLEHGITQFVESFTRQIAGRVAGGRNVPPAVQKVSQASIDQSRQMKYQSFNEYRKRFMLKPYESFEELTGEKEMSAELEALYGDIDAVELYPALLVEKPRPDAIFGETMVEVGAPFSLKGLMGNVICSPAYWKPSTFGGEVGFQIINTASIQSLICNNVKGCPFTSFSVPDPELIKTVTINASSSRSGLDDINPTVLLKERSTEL

COX-2 [2] = biological target: T1, COX-2; assay: COX-2 fluorescence assay with CoxFluor (fluorimeter / plate reader); format: biochemical; set-up: made in house; details: COX-2 250 nM, 4 h
Procedure: Fluorimeter Fluorescence Assay. The fluorescence assays were performed in microquartz cuvettes or submicroquartz cuvettes with a maximum volume of 600 μL. Reactions were monitored at room temperature using 540 nm excitation and emission was collected from 550-700 nm with a slit width of 1.25 mm. Total volumes of the reaction mixtures were maintained at 570 μL. […] Experiments in the presence of reduced GSH were conducted according to the same procedure, but GSH (30 μL, 19 mM in 100 mM Tris-HCl, pH 8.0) was added before the addition of CoxFluor for a final concentration of 1 mM. Assays performed in submicroquartz cuvettes were performed maintaining the same ratios, but with a final volume of 142.5 μL.
Plate Reader Fluorescence Assay. The fluorescence assays were performed at room temperature using 540 nm excitation and 590 nm emission. Total volume of the reaction mixture was maintained at 190 μL. […] Inhibition assays were performed according to the same procedure, but COX-2 was preincubated with hemin and inhibitor for 0.5 h at 0° C. before initiation with CoxFluor. Relative fluorescence enhancement is calculated by comparing to a buffer control with 10 μM CoxFluor.

[3] = ethanol; cited from earlier work
[4] = test system: COX-2 activity in HEK 293T cells over-expressing human COX-2; assay: Confocal live-cell imaging of human COX-2 transfected HEK 293T cells; format: cell-based; details: indomethacin 10 μM, CoxFluor 10 μM, 3 h
Procedure: Prior to plating onto 4-well chambered cover glasses, the surface exposed substrate was coated with R&D Systems™ Cultrex Poly-L-Lysine (Fisher Scientific) according to the manufacturers protocol (allowed to dry>3 h). […] Transfections was performed using Lipofectamine 3000 (Thermo Fisher Scientific) according to the manufacturer's protocol. […] Media was removed from each well and replaced with 500 μL Opti-MEM™ Reduced Serum Media followed by the addition of 20 μL transfection master mix.
Transfections were performed using the Lipofectamine 3000 reagent according to the aforementioned protocol. Control wells were treated the same as the transfected wells without the addition of the transfection master mix. […] Each well was imaged using a Zeiss LSM 700 confocal microscope (n=3 technical replicates; n=4 biological replicates). For GSH knockdown experiments, the initial media change was performed with 1 mM NEM (0.1% DMSO final concentration) in serum-free DMEM media and the cells were allowed to incubate for 30 minutes before proceeding to the staining with CoxFluor. […] All images were processed using identical parameters and false colored (LUT: jet.lut) in ImageJ.

[5] = CoxFluor, Ctrl-CoxFluor & Resorufin stability assays; format: physicochemical; details: 8 hours at room temperature or 37° C., with or without ambient light
Procedure: CoxFluor, Ctrl-CoxFluor & Resorufin Stability Assays. Stability assays were performed for a 10 μM solution of each compound in a series of buffers/solvents (100 mM Tris-HCl at pH 8.0, DMEM with 10% FBS, DMEM without serum and DMSO). Stability was assessed at room temperature or at 37° C. and in the presence or absence of ambient light. Fluorescence was measured using the plate reader with excitation at 540 nm and emission from 560-700 nm and the relative turn-on was determined by the change of fluorescence intensity at 590 nm.

[6] = Photophysical characterization; format: physicochemical
Procedure: Photophysical Characterization. Extinction coefficients and fluorescence quantum yields were acquired (n=3) and reported as the average with a relative standard deviation less than 15%. Extinction coefficients were acquired by titrating compound in 100 mM Tris-HCl (pH 8.0) within the linear range. Fluorescence quantum yields were obtained using the modified method for relative fluorescence quantum yield. Dye was titrated into the solution and the absorbance and emission were monitored (excitation at 540 nm). The absorbance was maintained below 0.1 to limit secondary absorbance events. Total emission spectra were integrated, and the relative quantum yield was calculated relative to Rhodamine B (ϕ=0.70, ethanol). The refractive index of 100 mM Tris-HCl (pH 8.0) was measured to be 1.33514.

[7] = substrate: CCCCC/C=C\C/C=C\C/C=C\C/C=C\CCCC(=O)N1c2ccc(O)cc2Oc2cc(O)ccc21; assay: COX-2 fluorescence assay with CoxFluor (fluorimeter / plate reader); format: biochemical, human; details: other: steady state; COX-2 50 nM, hemin 200 nM; pH 8.0

CCCCC/C=C\C/C=C\C/C=C\C/C=C\CCCC(=O)O [AA, arachidonic acid]
Km (COX-2 [1]): 6 µM

CCCCCCCCCCCCCCCCCCCC(=O)N1c2ccc(O)cc2Oc2cc(O)ccc21 [Ctrl-CoxFluor]
reactivity with COX-2 under the same reaction conditions (COX-2 [2]; hemin 1 μM): unreactive

CCN1C(=O)C=CC1=O [NEM, N-ethylmaleimide, reference compound]
effect on COX activity (COX-2 [2]; varying N-ethylmaleimide concentrations, CoxFluor 10 μM): does not affect COX activity

CCCCC/C=C\C/C=C\C/C=C\C/C=C\CCCC(=O)NCCO [arachidonyl ethanolamide]
Km (COX-2 [1]): 24 µM

CCN(CC)c1ccc2c(-c3ccccc3C(=O)O)c3ccc(=[N+](CC)CC)cc-3oc2c1.[Cl-] [Rhodamine B]
quantum yield ϕ of reference standard [3]: 0.70

COc1ccc2c(c1)c(CC(=O)O)c(C)n2C(=O)c1ccc(Cl)cc1 [indomethacin, reference compound]
fluorescence enhancement of transfected cells upon treatment with inhibitor [4]: no fluorescence enhancement was observed

O=c1ccc2nc3ccc(O)cc3oc-2c1 [resorufin, reference compound]
stability in Tris-HCl and DMEM buffer systems [5]: stable
extinction coefficient ε at 573 nm ([6]; 100 mM Tris-HCl pH 8.0): 73,000 M^−1cm^−1
fluorescence quantum yield ΦF ([6]; 100 mM Tris-HCl pH 8.0, relative to Rhodamine B): 0.55

B1: recombinant human COX-2 (Homo sapiens) (protein)
chain: T1 sequence (P35354 18-604)
notes: made in house
Km [7]: 22 µM
kcat [7]: 0.317 s⁻¹

From patent US12053533B2, “Fluorescent probe for cyclooxygenase-2” (The Board of Trustees of the University of Illinois, priority 2020, dated 2024)
